# Data taken from patent US20230088286A1, “USP7 INHIBITOR FOR USE IN THE TREATMENT OF CANCER” (ALMAC DISCOVERY LIMITED, priority 2020, published 2023).
# “Also recorded” adds a separate entry of the source.
# What was measured:
# VEGF = assay: Circulating serum VEGF by ELISA in CT-26 tumour bearing mice; assay type: in vivo, mouse; conditions: day 15 post tumour grafting
# [1] = tested on: cancer cells, primary and immortalized fibroblasts; assay: Cell proliferation assay (CellTiter-Glo viability); assay type: cell-based, human
# Experimental: The functional impact of USP7-mediated decrease in VEGF secretion is not on fibroblast or cancer cell proliferation. […] After 72 hours cell viability was measured by Cell-Titer-Glo. The results were normalized to the control non-treated group (mean±SD, n=3).
# [2] = tested on: HT29, H1299, LNCaP and MCF-7 cells; assay: sVEGF ELISA in cancer cells; assay type: cell-based, human; conditions: MCF-7, HT29, H1299, compared to vehicle-treated cells
# Experimental: Levels of sVEGF released to cell culture media was measured by ELISA.
# For the co-culture experiments, 5×10^4 cancer cells were seeded in transwell in 0.5 mL complete growth medium and placed on the top of 0.1×10^6 fibroblasts plated in 12-well in 1 mL low serum growth media overnight. Following day cancer cells were washed with PBS and media replaced with reduced (1%) serum growth media. 0.5×10^6 PBMC were plated on top of fibroblasts, incubated for 45 min and activated with CD3 (1 μg/ml final concentration) and CD28 (5 μg/ml final concentration). […] Monoculture experiments, 0.1×10^6 cells were seeded in 12-well in 1 mL of complete growth media (cancer cells) or low serum growth media (fibroblasts) and incubated overnight. […] Afterwards, cell culture media was collected, cell debris were removed by centrifugation the concentration of VEGF in the cell culture supernatants was measured using the human/mouse VEGF immunoassay Quantikine ELISA kit (R&D systems, Minneapolis, Minn., USA) according to the manufacturer's instructions. For the intracellular VEGF detection, total protein concentration was determined by BCA (Pierce Chemical, USA) and VEGF levels determined using the same kit described above.
# [3] = tested on: cancer cells, fibroblasts and endothelial cells; assay: Scratch wound cell migration assay; assay type: cell-based, human; conditions: any of tested cells
# Experimental: Pictures of wound closure were taken every 2 hours during a 4-day assay using a time-lapse microscope. Charts are displaying the percentage of wound closure over time.
# 96-well ImageLock plates were coated with 0.1 mg/ml growth factor reduced Matrigel® and incubated for 1 h at 37° C. Cells were seeded a density of 10,000-40,000 cells/well in 100 μL/well and incubated overnight. Next day wounds were simultaneously created in all wells using the WoundMaker. After wounding, media was aspirated from each well and cells were washed twice with PBS. For invasion cells were overlayed with 50 μL of the Matrigel® top layer at 3mg/ml and incubated for 30 min at 37° C. […] Cell plates were placed into the IncuCyte live-cell analysis system and each well imaged using 10× objective every 2 hours for the total of 5-days. Images were analysed using IncuCyte scratch wound protocol and results presented as percentage of wound confluence.
# [4] = tested on: primary fibroblast, immortalised fibroblast, endothelial cells and cancer cells; assay: Proliferation by live cell time-lapse imaging; assay type: cell-based, human; conditions: fibroblasts or endothelial cells
# Experimental: During a proliferation assay, pictures were taken every 2 hours using a time-lapse microscope. Charts were used to display cell confluency over time.
# To examine the effect of USP7 inhibition on proliferation of primary fibroblast, immortalised fibroblast, endothelial cells and cancer cells, live cell time-lapse imaging was used.
# [5] = tested on: CT-26 cells in BALB/C mice; assay: CT-26 syngeneic tumour model (AD-04 study)
# Experimental: FIG. 30: Effect of USP7 on the tumour microenvironment in vivo.
# For subcutaneous tumour implantation, CT26 cells were injected subcutaneously (1×10^6cells in 200 μL of RPMI) in the right flank of 8- to 10-week-old BALB/c female mice. […] Tumour volume (in mm^3) was measured twice a week with a digital caliper and calculated by the following formula: volume=(width)^2×length/2. Body weight was measured twice a week. […]
# MDCK permeability = assay type: in vitro ADME; conditions: dog, MDCK; read-out: MDCK Papp ratio
# MDCK = MDCK permeability; assay type: in vitro ADME
# LNCaP = LNCaP cell EC50; assay type: cell-based; conditions: Homo sapiens
# Caco-2 = Caco-2 permeability; assay type: in vitro ADME
# Hep CLhep (r) = assay type: in vitro ADME, rat
# LM CLhep (m) = assay type: in vitro ADME, mouse
# Ub-MDM2 = Ub-MDM2 MSD (HCT116); assay type: cell-based; conditions: Homo sapiens, HCT-116
# PPB Fu (r) = assay type: in vitro ADME; conditions: rat, plasma
# 2C9 = 2C9 (Homo sapiens, UniProt P11712); assay: Cyp inhibition 2C9; assay type: in vitro ADME; conditions: read-out: Cyps: 2C9
# CT-26 tumours = assay: Histology and immunofluorescence of CT-26 tumours (ADC-159); assay type: in vivo, mouse
# Experimental: FIG. 36: ADC-159 prevents tumour vessel maturation in CT-26 syngeneic mouse model in vivo. FFPE tumour blocks were prepared after 15 days of treatment with vehicle and ADC-159 and co-stained with endothelial cell marker CD31 (green), pericyte marker NG2 (red) and DAPI (blue; n=5 blocks/group). Mature blood vessels have fine branching positive for CD31 and NG2 staining (A, left image) which is lost when treated with USP7 inhibitor (B, right image).
# FIG. 37: ADC-159 decreases tumour area and increases necrosis area in the CT-26 syngeneic mouse model in vivo. […] FFPE tumour blocks were prepared followed by quantification of tumour and necrosis using HALO software.
# After rinsing with running water, the specimens were transferred to the Vacuum Tissue Processor (HistoCore PEARL, Leica) for dehydration, then embedded into FFPE blocks using Tissue embedding center (EG1150, Leica). FFPE blocks were sectioned with a manual rotary microtome (RM2235, Leica), 4 μm thickness/section. Sections were processed for staining with hematoxylin and eosin (H&E) or for immunofluorescent (IF) analysis. For IF sections were stained with primary antibodies specific for CD31 (abcam), NG2 (sigma) and cell nuclei were counterstained with DAPI. All stained sections were scanned with Pannoramic Digital Slide Scanners for 40× magnification (3[…], Pannoram ic SCAN). All the images were analyzed with HALOTM platform were tumour area and large areas of necrosis were quantified. Non-tumour tissue on the periphery was excluded.
# Chain of 2C9 (P11712 whole entry): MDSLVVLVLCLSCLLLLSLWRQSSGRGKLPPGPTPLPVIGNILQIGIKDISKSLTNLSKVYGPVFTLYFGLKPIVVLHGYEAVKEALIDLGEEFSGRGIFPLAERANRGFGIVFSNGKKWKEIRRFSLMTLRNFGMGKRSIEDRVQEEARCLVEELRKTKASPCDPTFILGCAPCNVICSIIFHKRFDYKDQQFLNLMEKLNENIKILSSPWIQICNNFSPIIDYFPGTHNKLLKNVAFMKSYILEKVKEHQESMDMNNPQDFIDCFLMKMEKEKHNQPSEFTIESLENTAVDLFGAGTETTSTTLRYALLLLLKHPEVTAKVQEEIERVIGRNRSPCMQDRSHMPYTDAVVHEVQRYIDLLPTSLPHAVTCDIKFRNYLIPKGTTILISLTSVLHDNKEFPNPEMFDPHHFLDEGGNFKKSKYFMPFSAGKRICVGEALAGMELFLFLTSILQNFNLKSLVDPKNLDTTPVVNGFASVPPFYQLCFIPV
compound,measurement,setting,value
"C[C@H](CC(=O)N1CCC(O)(Cn2cnc3c(-c4ccc(CN)cc4)n(C)nc3c2=O)CC1)c1ccccc1 [AD-04, (R)-3-(4-(Aminomethyl)phenyl)-6-((4-hydroxy-1-(3-phenylbutanoyl)piperidin-4-yl)methyl)-2-methyl-2H-pyrazolo[4,3-d]pyrimidin-7(6H)-one]",circulating VEGF in mouse serum,VEGF,significant dose-dependent decrease
same,sensitivity of cancer cell lines,[1]; HT29 and H1299 (data not shown),insensitive
same,sensitivity of cancer cell lines,[1]; LNCaP and MCF-7 (data not shown),sensitive
same,cell viability,"[1]; high concentration, normoxia and hypoxia, 72 hours",do not affect cell viability
same,sVEGF levels in supernatants of cancer cell lines,[2],not significantly affected
same,migration (scratch wound healing),[3],did not modulate migration
same,proliferation,[4],no effect
same,tumour growth inhibition,[5]; 360 h,53%
same,growth of CT26 xenografts (tumour volume),[5]; dose-dependent manner,inhibited the growth
same,"tolerability, bodyweight of tumour-bearing mice","[5]; mouse, in vivo",no significant bodyweight loss; also recorded: well tolerated
"CC1(C(=O)N2CCC(O)(Cn3cnc4c(cc(Cl)n4-c4ccc5c(c4)CCO5)c3=O)CC2)CC1 [ADC-159, 6-Chloro-7-(2,3-dihydrobenzofuran-5-yl)-3-((4-hydroxy-1-(1-methylcyclopropane-1-carbonyl)piperidin-4-yl)methyl)-3,7-dihydro-4H-pyrrolo[2,3-d]pyrimidin-4-One]",efflux ratio,MDCK permeability,276
same,MDCK A:B,MDCK; A:B,0.2
same,MDCK B:A,MDCK; B:A,50.1
same,EC50,LNCaP,76 nM
same,Caco-2 A:B,Caco-2; A:B,8.5
same,Caco-2 B:A,Caco-2; B:A,34.7
same,Hep CLhep (r),Hep CLhep (r),43
same,LM CLhep (m),LM CLhep (m),55
same,EC50,Ub-MDM2,93 nM
same,fraction unbound,PPB Fu (r),0.12
same,IC50,2C9,11000 nM
same,necrosis area at the tumour site,"CT-26 tumours; 100 mg/kg, compared to vehicle",significant increase
same,tumour area,"CT-26 tumours; 100 mg/kg, compared to vehicle",significant reduction
same,tumour vessel formation (CD31/NG2 staining),CT-26 tumours; 15 days of treatment,prevents tumour vessel formation
